The term IC50 denotes the point on the concentration scale where inhibition reaches its midpoint. A high value points to weaker potency in that assay.

The target of assay [1] is interaction between PD-1 and PD-L1 (Homo sapiens, UniProt Q9NZQ7). The assay is described as follows: PD-1/PD-L1 protein-protein interaction assay (ALPHA). It is filed as binding. To be noted: 2 nM His-tagged human PD-L1, 0.6 nM PD-1-Fc, AlphaScreen. A general note: Alpha assays give light when donor and acceptor beads are brought close together.
Chain of interaction between PD-1 and PD-L1 (Q9NZQ7 19-238 limits assumed): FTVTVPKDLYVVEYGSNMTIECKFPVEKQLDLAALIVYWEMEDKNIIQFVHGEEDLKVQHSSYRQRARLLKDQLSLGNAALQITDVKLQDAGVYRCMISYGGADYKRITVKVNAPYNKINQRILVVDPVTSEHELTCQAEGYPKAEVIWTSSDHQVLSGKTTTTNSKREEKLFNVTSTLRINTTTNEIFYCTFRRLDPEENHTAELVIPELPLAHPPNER
Another assay deals with T1, PD-1/PD-L1 interaction (Homo sapiens, UniProt Q9NZQ7).
T1 construct: expressed in transfected cells
T1 sequence (Q9NZQ7 19-290): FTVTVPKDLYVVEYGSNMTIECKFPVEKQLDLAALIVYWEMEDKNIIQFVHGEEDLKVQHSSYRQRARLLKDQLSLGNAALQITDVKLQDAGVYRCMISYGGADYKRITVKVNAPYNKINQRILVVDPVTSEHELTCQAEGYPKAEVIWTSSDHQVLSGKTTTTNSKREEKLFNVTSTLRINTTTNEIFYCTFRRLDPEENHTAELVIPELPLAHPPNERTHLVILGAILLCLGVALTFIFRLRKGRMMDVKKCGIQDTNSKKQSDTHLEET
The assay is described as follows: PD-1/PD-L1 blockage cell-based bioassay (Jurkat NFAT luciferase / CHO-PDL1 co-culture). To be noted: Jurkat NFAT cells co-cultured with CHO-PDL1 cells, 6 h, luminescence.

Bounds are passed on as bounds.

As to `COc1cc(-n2ncc3c(-c4cccc(-c5nc6cc(CN7CC[C@@H](C(=O)O)C7)cc(C#N)c6o5)c4C)cccc32)cc(OC)c1CN1CC[C@H](O)C1` [Example 155, (R)-1-((7-cyano-2-(3-(1-(4-(((S)-3-hydroxypyrrolidin-1-yl)methyl)-3,5-dimethoxyphenyl)-1H-indazol-4-yl)-2-methylphenyl)benzo[d]oxazol-5-yl)methyl)pyrrolidine-3-carboxylic acid], the IC50 was less than 1 nM in assay [1] and less than 200 nM on PD-1/PD-L1 interaction.

`COc1cc(-n2ncc3c(-c4cccc(-c5ccc(CN[C@H]6C[C@@H](O)C6)c(OC)n5)c4Cl)cccc32)cc(OC)c1CNCC(C)(C)C(N)=O` [Example 109, 3-((4-(4-(2-chloro-3-(5-(((cis-3-hydroxycyclobutyl)amino)methyl)-6-methoxypyridin-2-yl)phenyl)-1H-indazol-1-yl)-2,6-dimethoxybenzyl)amino)-2,2-dimethylpropanamide]: the values for the IC50 (in assay [1]; at PD-1/PD-L1 interaction) were 1 to 10 nM and less than 200 nM, respectively.

For `COc1cc(-n2ncc3c(-c4cccc(-c5ccc(CN[C@H]6C[C@@H](O)C6)c(OC)n5)c4Cl)cccc32)cc(OC)c1CN[C@@H](CO)C(N)=O` [Example 121, (S)-2-((4-(4-(2-chloro-3-(5-(((cis-3-hydroxycyclobutyl)amino)methyl)-6-methoxypyridin-2-yl)phenyl)-1H-indazol-1-yl)-2,6-dimethoxybenzyl)amino)-3-hydroxypropanamide], the IC50 in assay [1] was less than 1 nM; against PD-1/PD-L1 interaction it was 201 to 2000 nM.

`COc1cc(-n2ncc3c(-c4cccc(-c5ccc(C6=NCCN6)c(OC)n5)c4Cl)cccc32)cc(OC)c1CNC[C@@H]1CCC(=O)N1` [Example 74, (S)-5-(((4-(4-(2-chloro-3-(5-(4,5-dihydro-1H-imidazol-2-yl)-6-methoxypyridin-2-yl)phenyl)-1H-indazol-1-yl)-2,6-dimethoxybenzyl)amino)methyl)pyrrolidin-2-one]: the IC50 in assay [1] was less than 1 nM; at PD-1/PD-L1 interaction, less than 200 nM.

Turning to `COc1cc(-n2ncc3c(-c4cccc(-c5ccc(CN[C@H]6C[C@@H](O)C6)c(OC)n5)c4Cl)cccc32)cc(OC)c1CNCCO` [Example 125, cis-3-(((6-(2-chloro-3-(1-(4-(((2-hydroxyethyl)amino)methyl)-3,5-dimethoxyphenyl)-1H-indazol-4-yl)phenyl)-2-methoxypyridin-3-yl)methyl)amino)cyclobutanol], the IC50 in assay [1] was less than 1 nM; at PD-1/PD-L1 interaction it was less than 200 nM.

As to `COc1nc(-n2ccc3c(-c4ccc5c(c4)OCCO5)cccc32)cnc1CNC[C@@H]1CCC(=O)N1` [Example 60], in assay [1], the IC50 was greater than 100 nM.

Take `COc1cc(-n2ccc3c(-c4cccc(-c5ccc(CN6CC(C)(O)C6)c(OC)n5)c4Cl)cccc32)cc(OC)c1CN1CC(C)(O)C1` [Example 28]: the IC50 is 1 to 10 nM in assay [1] and greater than 2000 nM at PD-1/PD-L1 interaction.

Regarding `COc1cc(-n2ncc3c(-c4cccc(-c5ccc(CN[C@H]6C[C@@H](O)C6)c(OC)n5)c4Cl)cccc32)cc(OC)c1CN1CC(C)(C(=O)NC2CC2)C1` [Example 100, 1-(4-(4-(2-chloro-3-(5-(((cis-3-hydroxycyclobutyl)amino)methyl)-6-methoxypyridin-2-yl)phenyl)-1H-indazol-1-yl)-2,6-dimethoxybenzyl)-N-cyclopropyl-3-methylazetidine-3-carboxamide], the IC50 in assay [1] was less than 1 nM; at PD-1/PD-L1 interaction, less than 200 nM.

As for `COc1cc(-n2ccc3c(-c4ccc5c(c4)OCCO5)cccc32)cc(OC)c1CNC1CNC(=O)C1` (stereo not shown) [Example 16], in assay [1], the IC50 is greater than 100 nM.

For `Cc1cc(CN2CC(C)(C(=O)O)C2)cc(-n2ccc3c(-c4ccc5c(c4)OCCO5)cccc32)n1` [Example 86, 1-((2-(4-(2,3-dihydrobenzo[b][1,4]dioxin-6-yl)-1H-indol-1-yl)-6-methylpyridin-4-yl)methyl)-3-methylazetidine-3-carboxylic acid], the IC50 in assay [1] was greater than 100 nM.

In turn, `COc1nc(-n2ccc3c(-c4ccc5c(c4)OCCO5)cccc32)ccc1CN[C@@H](CO)C(=O)O` [Example 10] yielded an IC50 in assay [1] greater than 100 nM.

In turn, `COc1cc(CNC[C@@H]2CCC(=O)N2)cc(-n2ccc3c(-c4ccc5c(c4)OCCO5)cccc32)c1` [Example 19] yielded an IC50 in assay [1] greater than 100 nM.

For `Cc1cc2cc(CNC[C@@H]3CCC(=O)N3)cnc2c(-n2ccc3c(-c4ccc5c(c4)OCCO5)cccc32)n1` [Example 63, (S)-5-((((8-(4-(2,3-dihydrobenzo[b][1,4]dioxin-6-yl)-1H-indol-1-yl)-6-methyl-1,7-naphthyridin-3-yl)methyl)amino)methyl)pyrrolidin-2-one], the IC50 in assay [1] was greater than 100 nM.

The molecule `O=C(O)[C@H](CO)NCc1ccc(-n2ccc3c(-c4ccc5c(c4)OCCO5)cccc32)nc1` [Example 9] yielded an IC50 in assay [1] greater than 100 nM.

Regarding `COc1nc(-n2ccc3c(-c4ccc5c(c4)OCCO5)cccc32)ccc1CN1CC2(C1)CN(C(C)=O)C2` [Example 58, 1-(6-((6-(4-(2,3-dihydrobenzo[b][1,4]dioxin-6-yl)-1H-indol-1-yl)-2-methoxypyridin-3-yl)methyl)-2,6-diazaspiro[3.3]heptan-2-yl)ethanone], in assay [1], the IC50 is greater than 100 nM.

`Cn1cc(-n2ccc3c(-c4ccc5c(c4)OCCO5)cccc32)c2ncc(CNCC(C)(C)C(=O)O)cc21` [Example 25] had an IC50 in assay [1] greater than 100 nM.

In assay [1], `COc1cc(C(=O)n2ccc3c(-c4ccc5c(c4)OCCO5)cccc32)cc(OC)c1CNC(C)(CO)C(=O)O` (stereo not shown) [Example 7, 2-((4-(4-(2,3-dihydrobenzo[b][1,4]dioxin-6-yl)-1H-indole-1-carbonyl)-2,6-dimethoxybenzyl)amino)-3-hydroxy-2-methylpropanoic acid] showed an IC50 greater than 100 nM.

`COc1cc(-n2ccc3c(-c4cccc(NC(=O)c5ccc(CNC(C)(CO)C(=O)O)cc5)c4C)cccc32)cc(OC)c1CNC(C)(CO)C(=O)O` (stereo not shown) [Example 56, 2-((4-((3-(1-(4-(((2-carboxy-1-hydroxypropan-2-yl)amino)methyl)-3,5-dimethoxyphenyl)-1H-indol-4-yl)-2-methylphenyl)carbamoyl)benzyl)amino)-3-hydroxy-2-methylpropanoic acid] came in with an IC50 in assay [1] greater than 100 nM.

For the molecule `CC(CO)(NCc1ccc(-n2ccc3c(-c4ccc5c(c4)OCCO5)cccc32)cc1OCc1cccc(C#N)c1)C(=O)O` (stereo not shown) [Example 5, 2-((2-((3-cyanobenzyl)oxy)-4-(4-(2,3-dihydrobenzo[b][1,4]dioxin-6-yl)-1H-indol-1-yl)benzyl)amino)-3-hydroxy-2-methylpropanoic acid], the IC50 in assay [1] is greater than 100 nM.

`Cc1nn(CCNC[C@@H]2CCC(=O)N2)c2ccc(-n3ccc4c(-c5ccc6c(c5)OCCO6)cccc43)cc12` [Example 62, (S)-5-(((2-(5-(4-(2,3-dihydrobenzo[b] [1,4]dioxin-6-yl)-1H-indol-1-yl)-3-methyl-1H-indazol-1-yl)ethyl)amino)methyl)pyrrolidin-2-one] registered an IC50 in assay [1] greater than 100 nM.

For `COc1cc(-n2ccc3c(-c4ccc5c(c4)OCCO5)cccc32)cc(OC)c1CN1C[C@H](O)C[C@@H]1C(=O)O` [Example 2, (2R,4R)-1-(4-(4-(2,3-dihydrobenzo[b][1,4]dioxin-6-yl)-1H-indol-1-yl)-2,6-dimethoxybenzyl)-4-hydroxypyrrolidine-2-carboxylic acid], the IC50 in assay [1] was greater than 100 nM.

`COc1cc(-c2cn(C)c3c(-c4ccc5c(c4)OCCO5)cccc23)cc(OC)c1CNC[C@@H]1CCC(=O)N1` [Example 23] yielded an IC50 in assay [1] of 10 to 100 nM.

`COc1nc(-n2ccc3c(-c4ccc5c(c4)OCCO5)cccc32)ccc1CN1CC(C)(O)C1` [Example 12, ((6-(4-(2,3-dihydrobenzo[b][1,4]dioxin-6-yl)-1H-indol-1-yl)~2~methoxypyridin-3-yl)methyl)-L-serine] showed an IC50 in assay [1] greater than 100 nM.

For the molecule `COc1cc(-n2ccc3c(-c4ccc5c(c4)OCCO5)cccc32)cnc1CNC[C@@H]1CCC(=O)N1` [Example 61, (S)-5-((((5-(4-(2,3-dihydrobenzo[b][1,4]dioxin-6-yl)-1H-indol-1-yl)-3-methoxypyridin-2-yl)methyl)amino)methyl)pyrrolidin-2-one], the IC50 in assay [1] is greater than 100 nM.

Turning to `COc1cc(-n2ccc3c(-c4ccc5c(c4)OCCO5)cccc32)cc(OC)c1CNCCNC(C)=O` [Example 3, N-(2-((4-(4-(2,3-dihydrobenzo[b][1,4]dioxin-6-yl)-1H-indol-1-yl)-2,6-dimethoxybenzyl)amino)ethyl)acetamide], the IC50 in assay [1] was greater than 100 nM.

Take `N#Cc1cccc(COc2cc(-n3ccc4c(-c5ccc6c(c5)OCCO6)cccc43)ccc2CNCCO)c1` [Example 6, 3-((5-(4-(2,3-dihydrobenzo[b][1,4]dioxin-6-yl)-1H-indol-1-yl)-2-(((2-hydroxyethyl)amino)methyl)phenoxy)methyl)benzonitrile]: the IC50 in assay [1] was greater than 100 nM.

Consider `COc1nc(N2CCc3c(-c4ccc5c(c4)OCCO5)cccc32)ccc1CNC[C@@H]1CCC(=O)N1` [Example 80, (S)-5-((((6-(4-(2,3-dihydrobenzo[b][1,4]dioxin-6-yl)indolin-1-yl)-2-methoxypyridin-3-yl)methyl)amino)methyl)pyrrolidin-2-one], for which the IC50 in assay [1] was greater than 100 nM.

`c1cc(-c2ccc3c(c2)OCCO3)c2ccn(-c3nc4c(s3)CNCC4)c2c1` [Example 59, 2-(4-(2,3-dihydrobenzo[b] [1,4]dioxin-6-yl)-1H-indol-1-yl)-4,5,6,7-tetrahydrothiazolo[5,4-c]pyridine] returned an IC50 in assay [1] greater than 100 nM.

As to `Cn1c(CN[C@@H](CO)C(=O)O)cc2ccc(-n3ccc4c(-c5ccc6c(c5)OCCO6)cccc43)cc21` [Example 57, (S)-2-(((4-(2,3-dihydrobenzo[b][1,4]dioxin-6-yl)-1′-methyl-1′H-[1,6′-biindol]-2′-yl)methyl)amino)-3-hydroxypropanoic acid], in assay [1], the IC50 was greater than 100 nM.

As for `COc1cc(-c2c[nH]c3c(-c4ccc5c(c4)OCCO5)cccc23)cc(OC)c1CNC[C@@H]1CCC(=O)N1` [Example 24], the IC50 in assay [1] was greater than 100 nM.
